Counter-ions that a name gives are not always drawn.
What was measured:
[1] = target: T1, TLR7 (Homo sapiens, UniProt Q9NYK1); assay: HEK/293 TLR7 Cell Assay; type: cell-based; conditions: TLR7/NFKb HEK cells, R848 agonist 10 uM final concentration, Steady-Glo readout; read-out: TLR7 potency
T1 construct: expressed in transfected cells; host or cells: HEK/293 cells carrying TLR7 and an NF-kB luciferase reporter
T1 sequence (Q9NYK1 27-1049): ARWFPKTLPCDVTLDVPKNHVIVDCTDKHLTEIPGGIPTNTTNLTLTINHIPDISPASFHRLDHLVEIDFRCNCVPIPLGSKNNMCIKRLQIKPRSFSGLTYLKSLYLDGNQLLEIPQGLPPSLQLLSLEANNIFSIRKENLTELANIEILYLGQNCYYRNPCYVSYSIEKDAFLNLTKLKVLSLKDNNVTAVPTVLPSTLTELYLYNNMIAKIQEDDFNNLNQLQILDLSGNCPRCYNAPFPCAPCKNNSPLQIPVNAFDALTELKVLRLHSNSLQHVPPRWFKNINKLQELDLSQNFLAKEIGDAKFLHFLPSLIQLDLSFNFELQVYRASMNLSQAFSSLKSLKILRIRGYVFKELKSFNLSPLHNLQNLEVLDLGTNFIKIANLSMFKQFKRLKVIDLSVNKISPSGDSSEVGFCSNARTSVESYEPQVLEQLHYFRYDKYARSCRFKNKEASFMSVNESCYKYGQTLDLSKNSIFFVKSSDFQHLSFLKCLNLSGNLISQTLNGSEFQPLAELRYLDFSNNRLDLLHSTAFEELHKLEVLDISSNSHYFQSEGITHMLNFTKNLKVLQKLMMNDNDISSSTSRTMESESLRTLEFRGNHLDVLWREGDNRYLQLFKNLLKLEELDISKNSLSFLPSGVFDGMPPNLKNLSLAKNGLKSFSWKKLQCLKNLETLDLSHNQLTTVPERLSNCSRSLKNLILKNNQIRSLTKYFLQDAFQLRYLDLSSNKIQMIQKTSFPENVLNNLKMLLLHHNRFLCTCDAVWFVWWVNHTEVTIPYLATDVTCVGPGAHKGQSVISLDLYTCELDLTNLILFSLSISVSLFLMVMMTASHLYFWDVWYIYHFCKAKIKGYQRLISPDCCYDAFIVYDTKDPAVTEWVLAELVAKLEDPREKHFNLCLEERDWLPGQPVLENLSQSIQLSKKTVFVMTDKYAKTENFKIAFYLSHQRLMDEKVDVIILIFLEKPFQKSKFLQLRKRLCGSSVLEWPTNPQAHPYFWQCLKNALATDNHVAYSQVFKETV
Method in brief: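 TLR7/NF-κB reporter HEK293 cells, 5000/well, cultured 24 h, then preincubated 30 min with compound before R848 agonist (10 uM final). After 5 h stimulation, Steady-Glo luciferase luminescence read.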

[2] = target: T2, TLR8 (Homo sapiens, UniProt Q9NR97); assay: HEK/293 TLR8 Cell Assay; type: cell-based; conditions: HEK cells, R848 agonist 30 uM final concentration, Steady-Glo readout; read-out: TLR8 potency
T2 construct: expressed in transfected cells; host or cells: HEK/293 reporter cells (NF-kB luciferase)
T2 sequence (Q9NR97 27-1041): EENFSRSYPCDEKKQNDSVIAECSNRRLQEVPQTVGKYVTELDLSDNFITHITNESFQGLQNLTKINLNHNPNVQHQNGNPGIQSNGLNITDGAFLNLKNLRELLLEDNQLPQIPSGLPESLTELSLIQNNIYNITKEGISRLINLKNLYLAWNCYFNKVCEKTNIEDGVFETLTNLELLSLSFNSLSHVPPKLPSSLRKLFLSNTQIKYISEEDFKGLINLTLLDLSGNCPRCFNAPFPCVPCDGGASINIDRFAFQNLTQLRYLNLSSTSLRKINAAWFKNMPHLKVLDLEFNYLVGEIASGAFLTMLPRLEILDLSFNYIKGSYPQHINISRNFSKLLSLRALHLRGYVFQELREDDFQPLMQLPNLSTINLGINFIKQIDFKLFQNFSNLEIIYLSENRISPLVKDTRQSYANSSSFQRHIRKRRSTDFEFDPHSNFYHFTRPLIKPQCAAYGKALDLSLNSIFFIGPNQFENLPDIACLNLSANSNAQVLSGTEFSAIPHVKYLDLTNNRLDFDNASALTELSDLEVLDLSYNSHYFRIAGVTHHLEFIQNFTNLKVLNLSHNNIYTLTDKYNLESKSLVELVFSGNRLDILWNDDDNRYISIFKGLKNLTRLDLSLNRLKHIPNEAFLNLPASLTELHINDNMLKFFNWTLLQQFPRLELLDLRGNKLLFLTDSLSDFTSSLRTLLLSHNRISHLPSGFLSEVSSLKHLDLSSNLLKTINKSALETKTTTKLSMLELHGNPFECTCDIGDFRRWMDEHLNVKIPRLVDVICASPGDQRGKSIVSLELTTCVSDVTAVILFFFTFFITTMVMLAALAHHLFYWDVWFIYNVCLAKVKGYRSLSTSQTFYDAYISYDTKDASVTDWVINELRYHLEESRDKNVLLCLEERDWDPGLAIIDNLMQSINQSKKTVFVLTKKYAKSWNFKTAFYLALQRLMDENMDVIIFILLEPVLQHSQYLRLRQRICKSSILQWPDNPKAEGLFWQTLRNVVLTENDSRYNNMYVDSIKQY

IC50 [1] | IC50 [2] | SMILES
75 to 150 nM | > 150 nM | C[C@@H]1CN(c2ccc(C#N)c3nccnc23)C[C@H](CN2CCC(O)CC2)O1 [Example 219, 8-[(2S,6R)-2-(4-Hydroxy-piperidin-1-ylmethyl)-6-methyl-morpholin-4-yl]-quinoxaline-5-carbonitrile]
< 75 nM | < 75 nM | C[C@H]1CN(c2ccc(C#N)c3nccnc23)C[C@H](CN2CCN(C)CC2)O1 [Example 231, 8-[(2S,6S)-2-Methyl-6-(4-methyl-piperazin-1-ylmethyl)-morpholin-4-yl]-quinoxaline-5-carbonitrile]
< 75 nM | < 75 nM | Cc1c(F)cc(N2C[C@@H](C)C[C@@H](NC(=O)CC3(O)CCN(C)CC3)C2)c2cccnc12 [Example 69, N-[(3R,5S)-1-(7-fluoro-8-methylquinolin-5-yl)-5-methylpiperidin-3-yl]-2-(4-hydroxy-1-methylpiperidin-4-yl)acetamide]
75 to 150 nM | < 75 nM | CN1CCC(O)(CC(=O)N[C@@H]2C[C@H](C(F)(F)F)CN(c3ccc(C#N)c4nccnc34)C2)CC1 [Example 76, N-[(3R,5S)-1-(8-cyanoquinoxalin-5-yl)-5-(trifluoromethyl)piperidin-3-yl]-2-(4-hydroxy-1-methylpiperidin-4-yl)acetamide]
75 to 150 nM | > 150 nM | CCN(C)CCNC(=O)[C@H]1CN(c2ccc(C#N)c3ncncc23)C[C@@H](C)O1 [Example 266, (2R,6R)-4-(8-Cyano-quinazolin-5-yl)-6-methyl-morpholine-2-carboxylic acid [2-(ethyl-methyl-amino)-ethyl]-amide]
> 150 nM | < 75 nM | C[C@@H]1CN(c2cnc(C#N)c3ncccc23)C[C@H](CNC(=O)[C@@]2(F)CCN(C)C2)O1 (single isomer, unassigned) [Example 334]
> 150 nM | < 75 nM | C[C@H]1C[C@@H](NC(=O)NC2CCN(C)CC2)CN(c2ccc(C(F)(F)F)c3ncccc23)C1 [Example 147, 1-(1-Methyl-piperidin-4-yl)-3-[(3R,5S)-5-methyl-1-(8-trifluoromethyl-quinolin-5-yl)-piperidin-3-yl]-urea]
< 75 nM | < 75 nM | Cc1c(F)cc(N2C[C@@H](C)C[C@@H](NC(=O)[C@H](N)CO)C2)c2cccnc12 [Example 135, (R)-2-Amino-N-[(3R,5S)-1-(7-fluoro-8-methyl-quinolin-5-yl)-5-methyl-piperidin-3-yl]-3-hydroxy-propionamide]
< 75 nM | < 75 nM | C[C@H]1C[C@@H](NC(=O)[C@@H](N)[C@@H](C)O)CN(c2ccc(C(F)(F)F)c3ncccc23)C1 [Example 169, (2S,3R)-2-Amino-3-hydroxy-N-[(3R,5S)-5-methyl-1-(8-trifluoromethyl-quinolin-5-yl)-piperidin-3-yl]-butyramide]
< 75 nM | < 75 nM | C[C@H]1C[C@@H](OCCN2CCN(C)CC2)CN(c2ccc(C(F)(F)F)c3ncccc23)C1 (racemic) [Example 2, 5-[cis-3-methyl-5-[2-(4-methylpiperazin-1-yl)ethoxy]piperidin-1-yl]-8-(trifluoromethyl)quinoline]
< 75 nM | < 75 nM | C[C@H]1C[C@@H](NC(=O)CC2(O)CCN(C)CC2)CN(c2ccc(C(F)(F)F)c3nccnc23)C1 [Example 80, 2-(4-hydroxy-1-methylpiperidin-4-yl)-N-[(3R,5S)-5-methyl-1-[8-(trifluoromethyl)quinoxalin-5-yl]piperidin-3-yl]acetamide hydrochloride]

SMILES | IC50 [1] | IC50 [2]
C[C@H]1C[C@@H](NC(=O)[C@@H]2C[C@H](O)CN2)CN(c2ccc(C#N)c3nccnc23)C1 [Example 116, (2S,4S)—N-[(3R,5S)-1-(8-cyanoquinoxalin-5-yl)-5-methylpiperidin-3-yl]-4-hydroxypyrrolidine-2-carboxamide] | > 150 nM | < 75 nM
C[C@@H]1CN(c2ccc(C#N)c3nccnc23)C[C@H](C(=O)NC2CCC(=O)NC2=O)O1 (stereo partly drawn) [Example 236, (2R,6R)-4-(8-Cyano-quinoxalin-5-yl)-6-methyl-morpholine-2-carboxylic acid (2,6-dioxo-piperidin-3-yl)-amide] | 75 to 150 nM | 75 to 150 nM
C[C@@H]1CN(c2ccc(C#N)c3nccnc23)C[C@H](C(=O)NC[C@H](O)CO)O1 [Example 234, (2R,6R)-4-(8-Cyano-quinoxalin-5-yl)-6-methyl-morpholine-2-carboxylic acid ((S)-2,3-dihydroxy-propyl)-amide] | 75 to 150 nM | 75 to 150 nM
C[C@H]1C[C@@H](NC(=O)[C@@H](N)C(C)(C)O)CN(c2ccc(C#N)c3nccnc23)C1 [Example 173, (S)-2-Amino-N-[(3R,5S)-1-(8-cyano-quinoxalin-5-yl)-5-methyl-piperidin-3-yl]-3-hydroxy-3-methyl-butyramide] | < 75 nM | < 75 nM
C[C@H]1C[C@@H](NC(=O)CCS(=O)(=O)N(C)C)CN(c2ccc(C#N)c3nccnc23)C1 [Example 195, N-[(3R,5S)-1-(8-Cyano-quinoxalin-5-yl)-5-methyl-piperidin-3-yl]-3-dimethylsulfamoyl-propionamide] | 75 to 150 nM | 75 to 150 nM
C[C@@H]1CN(c2ccc(C#N)c3nccnc23)C[C@H](C(=O)NCC(C)(C)O)O1 [Example 246, (2R,6R)-4-(8-Cyano-quinoxalin-5-yl)-6-methyl-morpholine-2-carboxylic acid (2-hydroxy-2-methyl-propyl)-amide] | < 75 nM | < 75 nM
N#Cc1ccc(N2C[C@H](NC(=O)C3(F)CCNC3)C[C@H](C(F)(F)F)C2)c2cccnc12 (stereo partly drawn) [Example 206, N-[(3R,5S)-1-(8-cyanoquinolin-5-yl)-5-(trifluoromethyl)piperidin-3-yl]-3-fluoropyrrolidine-3-carboxamide] | 75 to 150 nM | 75 to 150 nM
C[C@@H]1CN(c2ccc(C#N)c3nccnc23)C[C@H](C(=O)NCC2CN(C)CCO2)O1 (stereo partly drawn) [Example 240, (2R,6R)-4-(8-Cyano-quinoxalin-5-yl)-6-methyl-morpholine-2-carboxylic acid (4-methyl-morpholin-2-ylmethyl)-amide] | < 75 nM | < 75 nM
C[C@H]1C[C@@H](NC(=O)CCC2CCN(C)CC2)CN(c2ccc(C#N)c3ncncc23)C1 [Example 191, N-[(3R,5S)-1-(8-Cyano-quinazolin-5-yl)-5-methyl-piperidin-3-yl]-3-(1-methyl-piperidin-4-yl)-propionamide] | 75 to 150 nM | 75 to 150 nM
C[C@@H]1CN(c2ccc(C#N)c3nccnc23)C[C@H](C(=O)NC[C@@H](O)CN(C)C)O1 (single isomer, unassigned) [Example 262] | < 75 nM | < 75 nM

— US20210300940A1 (Merck Patent GmbH, priority 2018, published 2021)
